Results on 1 compound are retold here after patent publication US20050032863A1, “Method of treating or preventing central nervous system disorders with compounds having selectivity for the alpha 3 subunit of the benzodiazepine receptor” (priority 2003, published 2005).

Several values for one entry are separate records, joined by “and”; a condition that tells them apart may be missing. Equal values may be shown once.

Assay [1] has as its target T1, recombinant rat α5β2γ2 GABAA receptors (Rattus norvegicus, UniProt P19969).
T1 construct: expressed in transfected cells; host or cells: HEK 293
The assay is described as follows: Whole-cell patch-clamp, modulation of GABA (EC20)-induced currents in transfected HEK 293 cells, α5β2γ2. The assay is classed as cell-based. The procedure: For electrophysiological recording HEK-293 cells were passaged and replated on 12-mm glass coverslips located in 9.6-cm plastic dishes filled with 10 ml of Minimum Essential Medium (MEM, Gibco) supplemented with 158 mg/l sodium bicarbonate, 2 mM glutamine (Gibco), 100 U/ml penicillin-streptomycin (Gibco), and 10% foetal calf serum (Gibco). Cultures were maintained at 37° C. in a humidified […]/5% CO2 atmosphere for 2-3 days.
Transfection with recombinant rat GABAA receptors was carried out as described in detail (Korpi and Lüddens, 1993, Lüddens and Korpi, 1995b). Briefly, HEK 293 cells were transfected in triple combinations using the phosphate precipitation method with rat GABAA receptor cDNAs in eukaryotic expression vectors (Pritchett, 1990) for the α, β and γ subunits. For optimal receptor expression, final concentrations (μg vector DNA per 9.6 cm tissue culture plate) were: α1, 2; α2 4.8; α3, 1.2; α4, 10; α5, 0.8; β2, 0.4; and γ2S, 0.3. The γ2S variant is abbreviated γ2 in the remainder of the text. To identify transfected cells all subunit combinations were co-transfected with 1 μg per plate of pNI-EGFP.
Two days after transfection single coverslips containing HEK 293 cells were placed in a recording chamber mounted on the movable stage of a fluorescence microscope (Olympus IX70) and perfused with a defined saline solution containing (in mM): 130 NaCl, 5.4 KCl, 2 CaCl2, 2 MgSO4, 10 glucose, 5 sucrose, and 10 HEPES (free acid), pH adjusted to 7.35 with about 35 mM NaOH. Transfected cells were identified by their green fluorescence due to the expression of the pNI-EGFP vector and ligand-mediated membrane currents of these cells were studied in the whole-cell configuration of the patch-clamp technique (Hamil et al., 1981). Patch-clamp pipettes were pulled from hard borosilicate capillary glass (0.5 mm ID, 1.5 mm OD, Vitrex, Science Products GmbH, Hofheim, Germany) using a horizontal puller (Sutter Instruments, CA, Model P-97) in a multi-stage process.
Seal resistances >1 GΩ were routinely obtained by applying gentle suction to the pipettes. Membrane rupture was monitored electrically as an increase in capacity. Pipette capacitance, membrane capacitance, and series resistance were electronically compensated to achieve minimal capacitative transients. A series resistance compensation of >60% was regularly used.
In all cells recorded the presence of the γ2 subunit in the heteropentamere was monitored by the application of 1 μM zolpidem plus the EC20 of GABA before testing the experimental drugs.
Responses of the cells were recorded by a patch-clamp amplifier (EPC-8, HEKA-Electronic, Lambrecht, Germany) in conjunction with a standard personal computer and the pClamp 8.1 software package (Axon Instruments, Foster City, Calif.). The standard holding-potential for the cells was −40 mV. Whole cell currents were low-pass filtered by an eight-pole Bessel filter at 5 or 3 kHz before being digitised by a Digidata 1322A interface (Axon Instruments, Foster City, Calif.) and recorded by the computer at a sampling rate of at least […].
Efficacy, potency, and GABAA receptor a subunit specificity of the new compound ELB139 was tested with the whole cell configuration of the patch-clamp technique by applying increasing drug concentration together with GABA of the approximate EC20 on green fluorescing cells. BZ binding site specificity of the new compound was tested on the same cells in an identical experimental setting with additionally applying 10 μM Ro15-1788.
In general terms: Patch clamp records ionic current or voltage across a cell membrane.

Assay [2] relates to extracellular serotonin in the striatum of rats. The assay is described as follows: Microdialysis in the striatum of rats, reversal by flumazenil (Example 6). Format: in vivo, rat. On the procedure: The day before the experiment, male rats were anaesthetised with chloral hydrate (3.6%, 1 ml/100 g i.p.) and placed in a stereotaxic frame to implant a microdialysis guide cannula (CMA/12, Carnegie Medicine, Sweden). Scalp was incised in the median anterior-posterior direction between lambda and bregma and a small hole was drilled into the skull. The stereotaxic coordinates were AP=+1.0 mm, L=−3.0 mm from bregma and 1.5 mm from the skull surface for the striatum according to the atlas of Paxinos and Watson, (1986) (1). Dental cement (Sinfony(2)) was used to fix the guide cannula and anchor screws to the cranium. During the surgery rectal temperature was maintained at 37° C. using a heating blanket.
The day before the experiment the microdialysis probe (CMA/12, membrane length 4 mm, Carnegie Medicin, Sweden) was inserted into the striatum through the guide cannula. […] Microvials were stored in a fraction collector (CMA/170) at a temperature of 8° C. until analysed. […]
Dialysates were directly analysed by reverse-phase high-performance liquid chromatography with electrochemical detection (HPLC-EC). […]
Therefore data of each animal were expressed as percentages. Data from dialysates before administering the substances were averaged, and the mean set as 100%; all individual values were calculated accordingly.

T1 sequence (P19969 32-464 limits assumed): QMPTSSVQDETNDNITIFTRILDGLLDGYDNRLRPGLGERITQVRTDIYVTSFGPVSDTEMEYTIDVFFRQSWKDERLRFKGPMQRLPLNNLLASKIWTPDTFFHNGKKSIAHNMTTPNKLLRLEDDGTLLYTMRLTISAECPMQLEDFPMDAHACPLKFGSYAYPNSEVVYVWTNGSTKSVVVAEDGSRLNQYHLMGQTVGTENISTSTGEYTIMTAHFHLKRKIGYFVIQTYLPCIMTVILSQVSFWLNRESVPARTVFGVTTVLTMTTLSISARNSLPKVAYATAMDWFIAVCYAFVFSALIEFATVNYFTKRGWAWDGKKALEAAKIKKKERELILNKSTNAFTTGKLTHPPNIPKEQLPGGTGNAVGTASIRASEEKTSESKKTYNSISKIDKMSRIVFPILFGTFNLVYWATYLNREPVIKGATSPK

For orientation: EC50 means the midpoint of the concentration-response curve. `O=C1N=C(N2CCCCC2)CN1c1ccc(Cl)cc1` [ELB139, 1-(4-chlorophenyl)-4-piperidinoimidazolin-2-one]: in assay [1] (applied with approximate GABA EC20, read-out: EC50 (ELB139)), the concentration for a half-maximal effect (EC50) worked out at 3.6 µM. In addition, in assay [1] (co-applied 10 μM Ro15-1788 (flumazenil)), the “effect of 10 μM Ro15-1788 on the current enhancement by the compound” value was “completely abolished”. Also, the “maximal positive modulation of GABA-induced current” value in assay [1] (maximum at 30 μM (ELB139), at 1 μM (diazepam)) is 1.4±0.06 fold and 1.4 fold. For the same compound, the “Potentiation* (ELB139)” value in assay [1] (with GABA EC20, graphically determined) was 1.4 ± 0.06. For the same compound, in assay [2] (30 mg/kg i.p.), the “extracellular serotonin in the striatum compared to mean basal level” value is reported as “marked increase”. In addition, the “increase of extracellular serotonin after flumazenil” value in assay [2] (ELB139 30 mg/kg i.p., flumazenil 10 mg/kg i.p. 40 minutes later) was “not only reversed but serotonin level even decreases below the mean basal level”.
